Patent US9580379B2, “Xanthine oxidase inhibitors and methods of use” (Baylor College of Medicine, priority 2014, dated 2017)
One block for each compound: values may come before it.

Key:
XO = biological target: T1, XO (Bos taurus, UniProt P80457); experiment: Conversion of DHNB to products by XO / reaction of XO and DHNB; type: biochemical, bovine; settings: for conversion of inhibitor by XO after 20 h: pre-incubation with XO for 20 h
T1 construct: Xanthine oxidase from bovine milk; purchased Sigma Chemical Co. (St. Louis, Mo.); host or cells: bovine milk
T1 sequence (P80457 whole entry): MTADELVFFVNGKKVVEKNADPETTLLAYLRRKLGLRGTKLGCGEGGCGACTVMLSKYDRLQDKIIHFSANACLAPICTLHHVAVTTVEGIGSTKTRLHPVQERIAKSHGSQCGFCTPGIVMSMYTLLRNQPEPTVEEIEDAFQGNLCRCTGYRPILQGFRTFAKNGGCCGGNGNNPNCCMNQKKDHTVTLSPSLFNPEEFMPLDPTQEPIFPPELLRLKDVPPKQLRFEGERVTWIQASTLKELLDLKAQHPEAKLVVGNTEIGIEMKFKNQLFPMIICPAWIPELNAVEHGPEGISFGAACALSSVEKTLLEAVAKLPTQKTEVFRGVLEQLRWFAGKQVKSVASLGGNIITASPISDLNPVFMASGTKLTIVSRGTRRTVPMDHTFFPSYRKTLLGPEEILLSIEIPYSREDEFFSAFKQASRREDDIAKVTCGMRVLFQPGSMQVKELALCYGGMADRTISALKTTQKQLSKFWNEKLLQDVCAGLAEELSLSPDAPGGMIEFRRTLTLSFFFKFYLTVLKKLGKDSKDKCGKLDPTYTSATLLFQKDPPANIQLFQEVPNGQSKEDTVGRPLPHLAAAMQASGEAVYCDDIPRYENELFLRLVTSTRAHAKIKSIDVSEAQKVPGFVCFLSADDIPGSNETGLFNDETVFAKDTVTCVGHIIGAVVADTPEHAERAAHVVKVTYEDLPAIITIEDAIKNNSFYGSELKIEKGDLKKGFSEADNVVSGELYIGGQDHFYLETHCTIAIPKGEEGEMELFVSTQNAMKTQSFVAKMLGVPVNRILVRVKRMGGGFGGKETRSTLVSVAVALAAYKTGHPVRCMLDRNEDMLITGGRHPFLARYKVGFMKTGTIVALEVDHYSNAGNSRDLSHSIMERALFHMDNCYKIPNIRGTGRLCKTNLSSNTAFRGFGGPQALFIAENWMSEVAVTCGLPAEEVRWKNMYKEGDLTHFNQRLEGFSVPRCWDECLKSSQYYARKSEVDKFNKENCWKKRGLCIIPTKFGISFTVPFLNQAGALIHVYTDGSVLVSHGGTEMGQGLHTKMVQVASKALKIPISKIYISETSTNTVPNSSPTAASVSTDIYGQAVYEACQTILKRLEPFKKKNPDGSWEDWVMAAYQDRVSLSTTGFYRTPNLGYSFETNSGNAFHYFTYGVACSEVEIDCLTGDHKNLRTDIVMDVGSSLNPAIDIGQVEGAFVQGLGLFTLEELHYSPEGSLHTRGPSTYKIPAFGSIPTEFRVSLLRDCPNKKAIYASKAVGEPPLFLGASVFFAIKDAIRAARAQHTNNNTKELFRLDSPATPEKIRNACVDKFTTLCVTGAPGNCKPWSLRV
Protocol: Negative electrospray ionization-mass spectrometry (ESI-MS) and tandem (MSMS) were applied to detect and confirm the reaction products of DHNB with XO. All mass spectrometric experiments were performed on an API 3200-Qtrap triple quadrupole mass spectrometer (Applied Biosystem/MDS SCIEX; Foster City, Calif.) equipped with a TurbolonSpray™ source. The main working parameters for mass spectrum were set as follows: ion-spray voltage, −4.5 kV; ion source temperature, 600° C.; gas 1, 40 psi; gas 2, 40 psi; curtain gas, 20 psi; collision gas, high.
After that, the enzymatic activity of XO was recovered.

HOCl scavenging assay = settings: 20 μM, compared with vitamin C
Protocol: HOCl scavenging assay—HOCl was prepared immediately before use by adjusting the pH of a 1% (v/v) solution of NaOCl to pH 6.2 with 0.6 M sulfuric acid. The concentration was further determined spectrophotometrically at 235 nm using the molar extinction coefficient of 100 M^−1 cm^−1. 5-Thio-2-nitrobenzoic acid (TNB) was prepared by reducing 5,5′-dithio-bis(2-nitrobenzoic acid) (DTNB) with sodium borohydride in phosphate buffer. The final concentrations of reagents used in the assay are as follows: 25 μM HOCl, 70 μM TNB, 0 to 200 μM antioxidants, phosphate buffer, 50 mM, pH 6.6. The HOCl scavenging assay was based on the inhibition of TNB oxidation to DTNB induced by HOCl.

[1] = Peroxynitrite scavenging assay; settings: 25 μM ONOO−, pH 7.4 (FIG. 7C)
Protocol: Peroxynitrite scavenging assay—Peroxynitrite (ONOO—) was generated by mixing 5 mL acidic solution (0.6 M HCl) of H2O2 (0.7 M) and 5 mL of 0.6 M KNO2 in an ice bath for 1 second and the reaction was quenched with 5 mL of ice-cold 1.2 M NaOH. Residual H2O2 was removed using granular MnO2 prewashed with 1.2 M NaOH and the reaction mixture was then left overnight at −20° C. Concentrations of ONOO^− were determined before each experiment at 302 nm using a molar extinction coefficient of 1,670 M^−1 cm^−1. The final concentrations of reagents used in the assay are as follows: 25 μM ONOO^−, 10 μM DTPA, 5 μM DHR 123, 0.1 M phosphate buffer, pH 7.4. The ONOO^− scavenging assay was performed by monitoring the oxidation of dihydrorhodamine (DHR 123) by ONOO^− spectrophotometrically at 500 nm. […] Vitamin C was used as a positive control. The concentration dependent effects of these compounds on ONOO^− scavenging were also studied and compared with that of vitamins C and E (FIG. 10).

DPPH scavenging assay = settings: 20 μM compound, 100 μM DPPH, compared with vitamin C
Protocol: DPPH scavenging assay—The abilities of the polyphenols described herein to scavenge the DPPH radical were measured optically by monitoring the decreases of their absorptions at […]. […] DPPH was used at a concentration of 100 μM. Their scavenging activities were compared with that of vitamin C.

xanthine oxidase = xanthine oxidase (Bos taurus, UniProt P80457); settings: for ability to inhibit XO at a concentration of 20 μM: compared with allopurinol (FIG. 2); for influence of pre-incubation with XO on XO inhibition: pre-incubation with XO 0 to 5 min at 25° C.; for time course of XO inhibition: XO (20 nM) added to xanthine (50 μM) and inhibitor (6.67 μM) to start the reaction; for XO activity after pre-incubation with inhibitor for 20 h: room temperature, DNSA 5 μM or 10 μM;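 as to all read-outs here: xanthine oxidase activity read as the initial rate of uric acid production, with water serving as the negative control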
Sequence of xanthine oxidase (P80457 whole entry): as above

C57BL/6 mice = test system: C57BL/6 mice
Source text: Each mouse was monitored for general health conditions on a daily basis for 28 days, including examination of mortality, body weights, and behavior of the mice.

mouse = settings: oral administration once; cited from earlier work
[2] = test system: allantoxanamide induced hyperuricemic mice; experiment: Hypouricemic effect in allantoxanamide induced hyperuricemic mice; type: in vivo; settings: for serum urate levels: 100 mg/kg oral before allantoxanamide injection
Protocol: A hyperuricemia mouse model was used. Allantoxanamide, a potent uricase inhibitor, was used to induce hyperuricemia in mice in this study. […] The mice were subsequently intraperitoneally injected with allantoxanamide at 200 mg/kg in 0.5% CMC-Na in a volume of 0.1 ml/10 g mouse body weight just after the tested drug oral administration to increase the serum uric acid level. […] The negative control mice were administered PEG400 only followed by i.p. allantoxanamide. The normal group mice were administered PEG400 only followed by i.p. CMC-Na only. Food and water were withheld overnight prior to the study. Whole blood samples were collected from mice through orbital vein bleeding at the end of the study. The mice were anaesthetized with diethyl ether inside a chamber. The blood was allowed to clot for 1 h at room temperature and then centrifuged at 2350×g for 4 min to obtain the serum. The serum was kept on ice and assayed immediately. Serum uric acid was determined with the phosphotungstate method, as known to those of skill in the art.

[3] = Superoxide scavenging assay (xanthine-xanthine oxidase system, NBT reduction); settings: 20 μM
Protocol: Superoxide scavenging assay—Superoxide (O2^−•) scavenging activity was assayed in the xanthine-xanthine oxidase system and determined by the inhibition of the reduction of nitro blue tetrazolium (NBT) to form blue formazan which has an absorption at 560 nm. The final concentrations of reagents used in the assay are as follows: 16.8 mU xanthine oxidase, 25 μM xanthine, 50 μM NBT, and 0.1 M phosphate buffer (pH 8.5). […] The abilities of polyphenols to scavenge O2^−• were compared with that of GSH.

inhibitory effect on XO of the product of DHNB conversion (XO; room temperature): no inhibitory effect on XO
Compound: O=C(O)c1cc(O)c(O)c([N+](=O)[O-])c1 [3,4-dihydroxy-5-nitrobenzoic acid]

IC50 (xanthine oxidase): 96 µM
ability to inhibit XO at a concentration of 20 μM (xanthine oxidase): had inhibitory effects on XO
Compound: O=Cc1cc(O)c(O)cc1[N+](=O)[O-] [DH6NB, 3,4-Dihydroxy-6-nitrobenzaldehyde]
HOCl scavenging effect (HOCl scavenging assay): weak scavenging effect on HOCl
scavenging effect on ONOO− [1]: strong scavenging effect on ONOO^−
DPPH scavenging effect (DPPH scavenging assay): as strong of a DPPH scavenging effect as vitamin C
influence of pre-incubation with XO on XO inhibition (xanthine oxidase; then 50 μM xanthine): pre-incubation also affected the XO inhibition

ability to inhibit XO at a concentration of 20 μM (xanthine oxidase): had inhibitory effects on XO
Compound: O=Cc1ccc(O)c(O)c1 [DHB-CHO, 3,4-dihydroxybenzaldehyde]
HOCl scavenging effect (HOCl scavenging assay): weak scavenging effect on HOCl
scavenging effect on ONOO− [1]: strong scavenging effect on ONOO^−
DPPH scavenging effect (DPPH scavenging assay): as strong of a DPPH scavenging effect as vitamin C
concentration and pre-incubation time dependence of XO inhibition (xanthine oxidase): not concentration dependent but instead was pre-incubation time dependent
influence of pre-incubation with XO on XO inhibition (xanthine oxidase; then 50 μM xanthine): pre-incubation also affected the XO inhibition

Compound: O=C(O)c1ccc(O)c(O)c1 [DHB-COOH, 3,4-dihydroxybenzoic acid, reference compound]
ability to inhibit XO at a concentration of 20 μM (xanthine oxidase): no effect on XO
influence of pre-incubation with XO on XO inhibition (xanthine oxidase; then 50 μM xanthine): did not show any inhibitory effect

Compound: O=Cc1cc(O)c(O)c([N+](=O)[O-])c1 [DHNB, 3,4-Dihydroxy-5-nitrobenzaldehyde]
hair loss of pups of treated mice (C57BL/6 mice; mouse, in vivo): not observed
histology analysis for the liver, kidney, and heart versus control mice (C57BL/6 mice; mouse, in vivo): did not show any difference
lowest published lethal dose (mouse): 312 mg/kg
HOCl scavenging effect (HOCl scavenging assay): moderate scavenging effect
duration of inhibition of XO activity (XO; 30 μM DHNB with 15 mU/ml (30 nM) XO, phosphate buffer pH 7.4): up to 20 h
decay rate of DHNB with XO (XO; 30 μM DHNB, 30 nM XO, phosphate buffer, pH dependent (higher pH faster), absorption at 327 nm): ~10^−10 mol/L/s
conversion of inhibitor by XO after 20 h (XO): converted to DHNB-COOH completely
stability without XO (XO; without XO): very stable
serum urate levels ([2]; in 2 hours): significantly lowered
serum urate levels ([2]; in 4 hours): just slightly higher than the normal level
scavenging effect on ONOO− [1]: strong scavenging effect on ONOO^−
DPPH scavenging effect (DPPH scavenging assay): as strong of a DPPH scavenging effect as vitamin C
IC50 (xanthine oxidase): 3 µM
pH dependence of XO inhibition (xanthine oxidase): neutral or slightly acidic solutions benefit the inhibition
ability to inhibit XO at a concentration of 20 μM (xanthine oxidase): had inhibitory effects on XO
time course of XO inhibition (xanthine oxidase): time-dependent inhibition
Dixon plot, steady-state kinetic study of XO inhibition (xanthine oxidase; concentration of DHNB fixed, increasing xanthine, 1 min pre-incubation): initial rates did not change with increasing xanthine concentrations
influence of pre-incubation with XO on XO inhibition (xanthine oxidase; then 50 μM xanthine): significantly increased the inhibition
XO activity after pre-incubation with inhibitor for 20 h (xanthine oxidase): XO activity was recovered
reversibility of XO inhibition (xanthine oxidase; tested condition): irreversible XO inhibitor

ability to inhibit XO at a concentration of 20 μM (xanthine oxidase): no effect on XO
influence of pre-incubation with XO on XO inhibition (xanthine oxidase; then 50 μM xanthine): did not show any inhibitory effect
Compound: O=[N+]([O-])c1cc(CO)cc(O)c1O [DHNB-CH2OH, reference compound]

ability to inhibit XO at a concentration of 20 μM (xanthine oxidase): no effect on XO
influence of pre-incubation with XO on XO inhibition (xanthine oxidase; then 50 μM xanthine): did not show any inhibitory effect
Compound: COc1ccc(CO)cc1OC [DMB-CH2OH, 3,4-dimethoxybenzyl alcohol, reference compound]

Compound: O=Cc1cc([N+](=O)[O-])cc([N+](=O)[O-])c1O [DNSA, 3,5-dinitrosalicylaldehyde]
conversion of inhibitor by XO after 20 h (XO): not converted
influence of pre-incubation of DNSA with XO on XO activity (xanthine oxidase; 20 nM XO and 20 μM DNSA pre-incubated 0-10 min, then 50 μM xanthine, steady-state rate): strongly inhibited XO activity
XO activity after pre-incubation with inhibitor for 20 h (xanthine oxidase): no XO activity at all

Compound: O.O=Cc1cc(O)c(O)c(O)c1 [THB-CHO, 3,4,5-trihydroxybenzaldehyde hydrate]
HOCl scavenging effect (HOCl scavenging assay): stronger HOCl scavenging effect than that of vitamin C
scavenging effect on ONOO− [1]: strong scavenging effect on ONOO^−
DPPH scavenging effect (DPPH scavenging assay): as strong of a DPPH scavenging effect as vitamin C
IC50 value, inhibition of XO activity (xanthine oxidase; 20 nM XO, 50 μM xanthine, phosphate buffer pH 7.4, 25° C., initial rate of uric acid formation): too high to determine
ability to inhibit XO at a concentration of 20 μM (xanthine oxidase): had inhibitory effects on XO
influence of pre-incubation with XO on XO inhibition (xanthine oxidase; then 50 μM xanthine): pre-incubation also affected the XO inhibition
scavenging effect on superoxide [3]: strong scavenging effects on superoxide

ability to inhibit XO at a concentration of 20 μM (xanthine oxidase): no inhibition on XO activity
influence of pre-incubation with XO on XO inhibition (xanthine oxidase; then 50 μM xanthine): did not show any inhibitory effect
Compound: COc1cc(C=O)ccc1O [Vanillin, reference compound]

Compound: NC(=O)c1nc(=O)[nH]c(=O)[nH]1 [allantoxanamide]
serum urate level ([2]; 1 h after 200 mg/kg allantoxanamide i.p., normal mice 2 mg/dl): 5.4 mg/dL
serum urate level ([2]; 2 h after 200 mg/kg allantoxanamide i.p.): 9.5 mg/dL
serum urate level ([2]; 3 h after 200 mg/kg allantoxanamide i.p.): 13.3 mg/dL
serum urate level ([2]; 4 h after 200 mg/kg allantoxanamide i.p.): 16.4 mg/dL

Compound: Oc1ncnc2[nH]ncc12 [allopurinol]
pups of surviving mice that died in two days (C57BL/6 mice; 500 mg/kg, total 19 pups): eight
mice died within 3 days (C57BL/6 mice; C57BL/6, mouse, in vivo): 5
hair loss of pups of treated mice (C57BL/6 mice; mouse, in vivo): lost most of the back hair
serum urate level ([2]; same condition as DHNB (100 mg/kg oral before allantoxanamide)): significantly lowered the serum urate level close to the normal level
DPPH scavenging effect (DPPH scavenging assay): no scavenging effect on DPPH
time course of XO inhibition (xanthine oxidase): time-dependent inhibition

Compound: O=C(O)/C=C/c1ccc(O)c(O)c1 [caffeic acid, reference compound]
scavenging effect on ONOO− [1]: strong scavenging effect on ONOO^−

ability to inhibit XO at a concentration of 20 μM (xanthine oxidase): no effect on XO
influence of pre-incubation with XO on XO inhibition (xanthine oxidase; then 50 μM xanthine): did not show any inhibitory effect
Compound: O=C(O)c1cc(O)c(O)c(O)c1 [gallic acid, reference compound]
scavenging effect on ONOO− [1]: strong scavenging effect on ONOO^−
